# Patent US6500849B1, “1-alkyl-, 1-alkenyl-, and 1-alkynylaryl-2-amino 1,3-propanediols and related compounds” (Aventis Pharmaceuticals Inc., priority 1990, dated 2002)
# Where two headings read alike, the source gives them in different places.
# Legend:
# [1] = test system: Bact. distasonis; assay: Anerobic antibacterial assay (agar dilution, Wilkins-Chalgren agar); assay type: cell-based; details: Parabacteroides distasonis, 48 h, read-out: Antibacterial activity (MIC, mg/l)
# [2] = test system: Strept. pyogenes; assay: Aerobic antibacterial assay (agar dilution, Mueller-Hinton agar); details: Streptococcus pyogenes, 24 h, read-out: Antibacterial activity (MIC, mg/l)
# [3] = test system: Propionibact. acnes; assay: Anerobic antibacterial assay (agar dilution, Wilkins-Chalgren agar); assay type: cell-based; details: 48 h, read-out: Antibacterial activity (MIC, mg/l)
# [4] = test system: Microsporum Canis; assay: Antifungal assay (microtitration technique); assay type: cell-based; details: 120 h; Microsporum Canis strain 150/353; 5 days at 30° C.
# Description: (§1) The microtiter plate is prepared as follows: The wells are each filled (2 rows/strain) with 50 μl neopeptone-dextrose broth (12-channel pipette). In addition, one row/strain is coated with 50 μl yeast-nitrogen base/well for yeasts and moulds. […] All wells are then inoculated with 150 μl standardized organism suspension (yeasts: 1×10^3 organisms/ml suspension; cutaneous fungi and moulds: 1.6×10^5 organisms/ml suspension); the total volume is 200 μl per well. There is also a growth control (inoculated, not medicated), a solvent control (inoculated, not medicated, containing solvent as in medicated rows) and a negative control (not inoculated, not medicated). Incubation for 5 days at 30° C. is followed by photometric evaluation. The obtained measurements are checked visually (macroscopically and microscopically) and corrected where necessary. Criteria for Evaluation of the Antimycotic Effect a. Photometric measurements (matrix method) b. Growth, macroscopic evaluation c. Growth, microscopic evaluation (inversion light microscope, magn. 64×).
# [5] = test system: Trichophyton Vaginalis; assay: Antifungal assay (microtitration technique); assay type: cell-based; details: 120 h; Trichophyton Vaginalis strain 111/216; 5 days at 30° C.
# Description: as §1
# [6] = test system: Candida Albicans; assay: Antifungal assay (microtitration technique); assay type: cell-based; details: 120 h; Candida Albicans strain 200/175; 5 days at 30° C.
# Description: as §1
# [7] = test system: Trichophyton Rubrum; assay: Antifungal assay (microtitration technique); assay type: cell-based; details: 120 h; Trichophyton Rubrum strain 101/85; 5 days at 30° C.
# Description: as §1
# [8] = test system: Trichophyton Mentagrophytes; assay: Antifungal assay (microtitration technique); assay type: cell-based; details: 120 h; Trichophyton Mentagrophytes strain 100/25; 5 days at 30° C.
# Description: as §1
# [9] = test system: Aspergillus Niger; assay: Antifungal assay (microtitration technique); assay type: cell-based; details: 120 h; Aspergillus Niger strain 500/284; 5 days at 30° C.
# Description: as §1
# [10] = test system: Bact. fragilis; assay: Anerobic antibacterial assay (agar dilution, Wilkins-Chalgren agar); assay type: cell-based; details: Bacteroides fragilis, anaerobic, 48 hours at 37° C.
# [11] = test system: Strept. faecium; assay: Aerobic antibacterial assay (agar dilution, Mueller-Hinton agar); details: Enterococcus faecium, 24 h, read-out: Antibacterial activity (MIC, mg/l)
# [12] = test system: Bact. thetaiotaom.; assay: Anerobic antibacterial assay (agar dilution, Wilkins-Chalgren agar); assay type: cell-based; details: anaerobic, 48 hours at 37° C.
# [13] = test system: Fusobact. varium; assay: as above; assay type: cell-based; details: 48 h, read-out: Antibacterial activity (MIC, mg/l)
# [14] = test system: E. coli; assay: Aerobic antibacterial assay (agar dilution, Mueller-Hinton agar); assay type: cell-based; details: Escherichia coli, 24 h, read-out: Antibacterial activity (MIC, mg/l)
# [15] = test system: Bact. vulgatus; assay: Anerobic antibacterial assay (agar dilution, Wilkins-Chalgren agar); assay type: cell-based; details: Phocaeicola vulgatus, 48 h, read-out: Antibacterial activity (MIC, mg/l)
# [16] = test system: Klebsiella spp.; assay: Aerobic antibacterial assay (agar dilution, Mueller-Hinton agar); details: Klebsiella, 24 h, read-out: Antibacterial activity (MIC, mg/l)
# [17] = test system: S. typhimurium; assay: as above; details: Salmonella enterica, TYPHIMURIUM, 24 h, read-out: Antibacterial activity (MIC, mg/l)
# [18] = test system: Clost. tetani; assay: Anerobic antibacterial assay (agar dilution, Wilkins-Chalgren agar); assay type: cell-based; details: Clostridium tetani, 48 h, read-out: Antibacterial activity (MIC, mg/l)
# [19] = test system: E. cloacae; assay: Aerobic antibacterial assay (agar dilution, Mueller-Hinton agar); details: Enterobacter cloacae, 24 h, read-out: Antibacterial activity (MIC, mg/l)
# [20] = test system: Spaeroph. freundii; assay: Anerobic antibacterial assay (agar dilution, Wilkins-Chalgren agar); assay type: cell-based; details: 48 h, read-out: Antibacterial activity (MIC, mg/l)
# [21] = test system: Bact. ovatus; assay: as above; assay type: cell-based; details: Bacteroides ovatus; Bact. ovatus 103; anaerobic; 48 hours at 37° C.; read-out: Antibacterial activity (MIC, mg/l)
# [22] = test system: Staph. aureus; assay: Aerobic antibacterial assay (agar dilution, Mueller-Hinton agar); details: Staphylococcus aureus, 24 h
# [23] = test system: Clost. perfringens; assay: microbe, parasite or virus in culture; assay type: cell-based; details: Clostridium perfringens, 48 h, read-out: Antibacterial activity (MIC, mg/l)
# [24] = test system: Peptostr. anaerobius; assay: Anerobic antibacterial assay (agar dilution, Wilkins-Chalgren agar); assay type: cell-based; details: 48 h, read-out: Antibacterial activity (MIC, mg/l)
structure (smiles),measurement,setting,value
"CCCCCCCCCCc1cccc(C(O)C(N)CO)n1 (stereo not drawn) [erythro-2-Amino-1-(6-Decyl-2-pyridinyl)-1,3-dihydroxypropane]",MIC,[1],12.5 mg/L
same,MIC,[2],6.25 mg/L
same,MIC,[3],12.5 mg/L
same,MIC,[4],31.2 µg/mL
same,MIC,[5],15.6 µg/mL
same,MIC,[6],31.2 µg/mL
same,MIC,[7],31.2 µg/mL
same,MIC,[8],31.2 µg/mL
same,MIC,[9],31.2 µg/mL
same,MIC,"[10]; 48 h, read-out: Antibacterial activity (MIC, mg/l), Bact. fragilis 312",12.5 mg/L
same,MIC,"[10]; 48 h, read-out: Antibacterial activity (MIC, mg/l), Bact. fragilis 1313",12.5 mg/L
same,MIC,"[10]; 48 h, read-out: Antibacterial activity (MIC, mg/l), Bact. fragilis 17390",12.5 mg/L
same,MIC,"[10]; 48 h, read-out: Antibacterial activity (MIC, mg/l), Bact. fragilis 18125",12.5 mg/L
same,MIC,"[10]; 48 h, read-out: Antibacterial activity (MIC, mg/l), Bact. fragilis 19016",12.5 mg/L
same,MIC,"[10]; Bact. fragilis 960, read-out: Antibacterial activity (MIC, mg/l)",6.25 mg/L
same,MIC,[11],12.5 mg/L
same,MIC,"[12]; 48 h, read-out: Antibacterial activity (MIC, mg/l), Bact. thetaiotaom. 1428",12.5 mg/L
same,MIC,"[12]; 48 h, read-out: Antibacterial activity (MIC, mg/l), Bact. thetaiotaom. 1445",12.5 mg/L
same,MIC,"[12]; Bact. thetaiotaom. 123, read-out: Antibacterial activity (MIC, mg/l)",6.26 mg/L
same,MIC,[13],12.5 mg/L
same,MIC,"[14]; E. coli 1507E, 24 hours at 37° C.",12.5 mg/L
same,MIC,"[14]; E. coli DC0, 24 hours at 37° C.",12.5 mg/L
same,MIC,"[14]; E. coli DC2, 24 hours at 37° C.",6.25 mg/L
same,MIC,"[14]; E. coli O 78, 24 hours at 37° C.",12.5 mg/L
same,MIC,"[14]; E. coli TEM, 24 hours at 37° C.",25 mg/L
same,MIC,[15],12.5 mg/L
same,MIC,[16],12.5 mg/L
same,MIC,[17],12.5 mg/L
same,MIC,[18],12.5 mg/L
same,MIC,[19],12.5 mg/L
same,MIC,[20],12.5 mg/L
same,MIC,[21],6.25 mg/L
same,MIC,"[22]; read-out: Antibacterial activity (MIC, mg/l)",6.25 mg/L
same,MIC,"[22]; read-out: Antibacterial activity (MIC, mg/l), Staph. aureus 285, aerobic, 24 hours at 37° C.",12.5 mg/L
same,MIC,"[22]; read-out: Antibacterial activity (MIC, mg/l), Staph. aureus SG511, aerobic, 24 hours at 37° C.",12.5 mg/L
same,MIC,[23],12.5 mg/L
same,MIC,[24],12.5 mg/L
